pEC50: −log10 of the molar value. Values after ≈ are worked out from the molar mass of the structure shown. *1 amine or outer side, *2 acyl side, *3 side chain or, on linkers, in order; H or OH if unused. Where a SMILES comes first, the peptide text is derived from it. Side-chain parts run from the residue outwards. [ ]: non-standard residue; d: D form. The star is where a group is joined. γGlu = O=C(O)[C@H](CCC(=O)[*:2])N[*:1]; Stearoyl = CCCCCCCCCCCCCCCCCC(=O)*; Palmitoyl = CCCCCCCCCCCCCCCC(=O)*; Aib = CC(C)(N)C(=O)O; GABA = NCCCC(=O)O

The nature of data set [1]: Solubility testing in buffer (HPLC-UV).
Data set [2] relates to female NMRI-mice. As to the kind of experiment: Gastric emptying and intestinal passage in mice. It is filed as in vivo. To be noted: 10 μg/kg s.c., versus vehicle control. On the procedure: Female NMRI-mice of a body weight between 20 and 30 g were used. Mice were adapted to housing conditions for at least one week. Mice were overnight fasted, while water remained available all the time. On the study day, mice were weighed, single-caged and allowed access to 500 mg of feed for 30 min, while water was removed. At the end of the […], remaining feed was removed and weighed. Then, the test compound/reference compound or its vehicle in the control group was administered subcutaneously. 60 min later, to allow the compound to reach relevant plasma exposure, a coloured, non-caloric bolus was instilled via gavage into the stomach. After another 30 min, the animals were sacrificed and the stomach and the small intestine prepared. The filled stomach was weighed, emptied, carefully cleaned and dried and reweighed. The stomach content, calculated as weight of filled subtracted by the weight of emptied stomach, indicated the degree of gastric emptying. The small intestine was straightened without force and measured in length. Then the distance from the gastric beginning of the gut to the tip of the farthest traveled intestinal content bolus was measured. The intestinal passage was given as ratio in percent of the latter distance and the total length of the small intestine. […] Statistical analyses were performed with Everstat 6.0 by 1-way-ANOVA, followed by Dunnett's as post-hoc test. Dunnett's Test was applied to compare versus vehicle control. Differences were considered statistically significant at the p<0.05 level.

Data set [3] is described as follows: Chemical stability in solution, 7 days at 25° C. (% remaining peptide). To be noted: % remaining peptide after 7 days at 25° C.
Procedure: After that time course, the sample was centrifuged for 20 min at 4000 rpm and the supernatant was analysed with HPLC-UV. For determination of the amount of the remaining peptide, the peak areas of the target compound at t0 and t7 were compared, resulting in “% remaining peptide”, following the equation % remaining peptide=[(peak area peptide t7)×100]/peak area peptide t0.
The chemical stability is expressed as “% remaining peptide”.
Data set [4] concerns female leptin-receptor deficient diabetic db/db mice. The data set can be described thus: Blood glucose and HbA1c in leptin-receptor deficient diabetic db/db mice (method 3). It is filed as in vivo. To be noted: single 100 μg/kg s.c., fed db/db mice. The text has this:
Female BKS.Cg-m+/+Leprdb/J (db/db) and BKS.Cg-m+/+Leprdb/+(lean control) mice were obtained from Charles River Laboratories, Germany, at an age of 9-10 weeks. The animals were housed in groups in a specific pathogen-free barrier facility on a 12-h light/dark cycle with free access to water and rodent-standard chow. After 1 week of acclimatization, blood samples were drawn from the tail without anaesthesia and blood glucose (method: d-glucose hexokinase, hemolysate, AU640 Beckman Coulter) and HbA1c level (method: hemolysate, Cobas6000 c501, Roche Diagnostics, Germany) were determined. […] The volume of administration was 5 mL/kg. The animals had access to water and chow during the experiment, food consumption was determined at all time points of blood sampling. […] Blood sampling was performed by tail incision without anaesthesia. […] At the end of the study, blood samples (tail, no anaesthesia) were analyzed for glucose and HbA1c. […] Statistical analyses were performed with Everstat 6.0 by repeated measures two-way ANOVA and Dunnett's post-hoc analyses. Differences versus vehicle-treated db/db control mice were considered statistically significant at the p<0.05 level. […] At predefined time points, more blood samples were taken to measure blood glucose and generate the blood glucose profile over 24 h. […] Blood glucose and HbA1c were determined before start of treatment and at the end of the study after 4 weeks of treatment. […] Before treatment started, no significant differences in blood glucose levels could be detected between db/db groups, only the lean control animals had significant lower glucose levels. During the 4 weeks of treatment, glucose levels increased in the vehicle-treated db/db control group, indicating a worsening of the diabetic situation.

The subject of data set [5] is female NMRI-mice. The data set can be described thus: Automated assessment of 22-hours feed intake in mice. It is filed as in vivo. To be noted: 0.1 mg/kg s.c. Here is the method: Female NMRI-mice of a body weight between 20 and 30 g were used. Mice were adapted to housing conditions for at least one week and for at least one day single-caged in the assessment equipment, when basal data were recorded simultaneously. On the study day, test product was administered subcutaneously close to the lights-off phase (12 h lights off) and assessment of feed consumption was directly started afterwards. Assessment included continued monitoring over 22 hours, while data are processed as mean over every 30 min. Repetition of this procedure over several days was possible. Restriction of assessment to 22 hours was for practical reasons to allow for reweighing of animals, refilling of feed and water and drug administration between procedures. Results could be assessed as cumulated data over 22 hours or differentiated to 30 min intervals. […] Statistical analyses were performed with Everstat 6.0 by two-way ANOVA on repeated measures and Dunnett's post-hoc analyses. Differences were considered statistically significant at the p<0.05 level. […] Lights-off phase (dark phase) started 4 hours later. […].

Data set [6] in a line: Pharmacokinetic testing in mice, s.c. To be noted: mouse, in vivo, sc, 1 mg/kg.
Procedure: Mice were dosed 1 mg/kg subcutaneously (s.c.). The mice were sacrified and blood samples were collected after 0.25, 0.5, 1, 2, 4, 8, 16 and 24 hours post application. Plasma samples were analyzed after protein precipitation via liquid chromatography mass spectrometry (LC/MS). PK parameters and half-life were calculated using WinonLin Version 5.2.1 (non-compartment model).
The target of data set [7] is T1, human GIP receptor (Homo sapiens, UniProt P48546).
T1 construct: expressed in transfected cells
T1 sequence (P48546 22-466): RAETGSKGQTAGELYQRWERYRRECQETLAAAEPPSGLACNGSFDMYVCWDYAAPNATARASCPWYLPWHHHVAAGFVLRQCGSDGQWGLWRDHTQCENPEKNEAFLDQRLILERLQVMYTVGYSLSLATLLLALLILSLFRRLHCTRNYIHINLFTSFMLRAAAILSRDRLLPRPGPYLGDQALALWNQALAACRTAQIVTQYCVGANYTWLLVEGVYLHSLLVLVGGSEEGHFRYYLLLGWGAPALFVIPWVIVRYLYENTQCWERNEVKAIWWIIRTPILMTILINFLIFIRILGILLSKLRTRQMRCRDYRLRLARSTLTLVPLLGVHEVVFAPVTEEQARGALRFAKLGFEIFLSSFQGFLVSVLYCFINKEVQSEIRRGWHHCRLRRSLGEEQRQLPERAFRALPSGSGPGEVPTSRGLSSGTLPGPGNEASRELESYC
The data set can be described thus: cAMP response (HTRF) of HEK-293 cells stably expressing human GIP receptor. It is filed as cell-based. To be noted: Table 7; cAMP formation; read-out: EC50 hGIP R. On the procedure:
cAMP content of cells was determined using a kit from Cisbio Corp. (cat. no. 62AM4PEC) based on HTRF (Homogenous Time Resolved Fluorescence). For preparation, cells were split into T175 culture flasks and grown overnight to near confluency in medium (DMEM/10% FBS). Medium was then removed and cells washed with PBS lacking calcium and magnesium, followed by proteinase treatment with accutase (Sigma-Aldrich cat. no. A6964). Detached cells were washed and resuspended in assay buffer (1×HBSS; 20 mM HEPES, 0.1% BSA, 2 mM IBMX) and cellular density determined. They were then diluted to 400000 cells/ml and 25 μl-aliquots dispensed into the wells of 96-well plates. For measurement, 25 μl of test compound in assay buffer was added to the wells, followed by incubation for 30 minutes at room temperature.

Data set [8] has as its target T2, human GLP-1 receptor (Homo sapiens, UniProt P43220).
T2 construct: expressed in transfected cells
As to the kind of experiment: cAMP response (HTRF) of HEK-293 cells stably expressing human GLP-1 receptor. It is filed as cell-based. To be noted: Table 7; cAMP formation; read-out: EC50 hGLP-1 R. In a few lines: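 cAMP accumulation was read by homogeneous time-resolved fluorescence after 30 min compound exposure at room temperature. Stable receptor-expressing HEK-293 cells, 400000 cells/ml, were used in HEPES-buffered HBSS containing 0.1% BSA and the phosphodiesterase inhibitor IBMX (2 mM).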
(TR-FRET usually uses a lanthanide donor and a delayed reading to cut background.)

T2 sequence (P43220 24-463): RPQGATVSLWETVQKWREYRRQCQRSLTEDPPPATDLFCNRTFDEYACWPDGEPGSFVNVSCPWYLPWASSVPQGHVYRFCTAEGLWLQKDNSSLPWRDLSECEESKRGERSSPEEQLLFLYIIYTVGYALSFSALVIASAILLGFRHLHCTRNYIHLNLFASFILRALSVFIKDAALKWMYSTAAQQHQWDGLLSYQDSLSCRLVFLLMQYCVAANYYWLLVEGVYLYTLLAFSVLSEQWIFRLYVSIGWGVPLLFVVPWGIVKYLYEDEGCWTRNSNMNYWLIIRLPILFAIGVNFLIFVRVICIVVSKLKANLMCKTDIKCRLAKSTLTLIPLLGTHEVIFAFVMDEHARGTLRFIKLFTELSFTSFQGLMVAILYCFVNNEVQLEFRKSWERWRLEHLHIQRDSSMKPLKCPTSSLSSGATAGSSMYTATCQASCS

For `CCCCCCCCCCCCCCCC(=O)N[C@@H](CCC(=O)NCCCC[C@H](NC(=O)[C@H](CCC(N)=O)NC(=O)[C@@H](NC(=O)[C@H](CO)NC(=O)[C@H](CC(C)C)NC(=O)[C@H](CC(=O)O)NC(=O)[C@H](CO)NC(=O)[C@@H](NC(=O)[C@H](Cc1ccccc1)NC(=O)[C@@H](NC(=O)CNC(=O)[C@H](CCC(N)=O)NC(=O)C(C)(C)NC(=O)[C@@H](N)Cc1ccc(O)cc1)[C@@H](C)O)[C@@H](C)O)[C@@H](C)CC)C(=O)N[C@@H](CC(=O)O)C(=O)N[C@@H](CO)C(=O)N[C@@H](CCCNC(=N)N)C(=O)N[C@@H](C)C(=O)N[C@@H](C)C(=O)N[C@@H](CCC(N)=O)C(=O)N[C@@H](CC(=O)O)C(=O)N[C@@H](Cc1ccccc1)C(=O)N[C@H](C(=O)N[C@@H](CCC(=O)O)C(=O)N[C@@H](Cc1c[nH]c2ccccc12)C(=O)N[C@@H](CC(C)C)C(=O)N[C@@H](CCCCN)C(=O)N[C@@H](CC(N)=O)C(=O)NCC(=O)NCC(=O)N1CCC[C@H]1C(=O)N[C@@H](CO)C(=O)N[C@@H](CO)C(=O)NCC(=O)N[C@@H](C)C(=O)N1CCC[C@H]1C(=O)N1CCC[C@H]1C(=O)N1CCC[C@H]1C(=O)N[C@@H](CO)C(N)=O)[C@@H](C)CC)C(=O)O` [SEQ ID NO: 13, Y-Aib-Q-G-T-F-T-S-D-L-S-I-Q-K(γE-x53)-DSRAAQDFIEWLKNGGPSSGAPPPS-NH2] (H-Y[Aib]QGTFTSDLSIQK([γGlu-Palmitoyl])DSRAAQDFIEWLKNGGPSSGAPPPS-NH2), the concentration in solution in data set [1] (pH 4.5) (solubility at 2 h) came to 268 µg/mL (≈ 59.4 µM). For the same molecule, the solubility (usually the dissolved amount per volume that the medium holds) at 2 h in data set [1] (pH 7.4) is > 1000 µg/mL. In addition, in data set [2], the “increase of remaining gastric contents” value is given as 40% and the “reduction of intestinal passage” value is reported as 60%. In data set [3], the “Stability (pH 4.5)” value was determined as 86.8% and the “Stability (pH 7.4)” value was 95.9%. Also, the “blood glucose compared to db/db control mice, 24 h profile” value in data set [4] was “significant decrease in blood glucose”. Further, the “reduction of feed intake after 22 hours” value in data set [5] is on record as 93%. Also, in data set [6], the highest level (Cmax) was 3790 ng/mL and the half-life (usually the time needed for the level to fall by half in the phase considered) is 3.1 h.
As for `CCCCCCCCCCCCCCCCCC(=O)NCCCC(=O)NCCCC[C@H](NC(=O)[C@H](CCC(N)=O)NC(=O)[C@@H](NC(=O)[C@H](CO)NC(=O)[C@H](CC(C)C)NC(=O)[C@H](CC(=O)O)NC(=O)[C@H](CO)NC(=O)[C@@H](NC(=O)[C@H](Cc1ccccc1)NC(=O)[C@@H](NC(=O)CNC(=O)[C@H](CCC(=O)O)NC(=O)C(C)(C)NC(=O)[C@@H](N)Cc1ccc(O)cc1)[C@@H](C)O)[C@@H](C)O)[C@@H](C)CC)C(=O)N[C@@H](CCC(=O)O)C(=O)N[C@@H](CCCCN)C(=O)N[C@@H](CCCNC(=N)N)C(=O)N[C@@H](C)C(=O)N[C@@H](C)C(=O)NC(C)(C)C(=O)N[C@@H](CCC(=O)O)C(=O)N[C@@H](Cc1ccccc1)C(=O)N[C@H](C(=O)N[C@@H](CCC(=O)O)C(=O)N[C@@H](Cc1c[nH]c2ccccc12)C(=O)N[C@@H](CC(C)C)C(=O)N[C@@H](CCCCN)C(=O)N[C@@H](CC(N)=O)C(=O)N[C@H](C(=O)NCC(=O)N1CCC[C@H]1C(=O)N[C@@H](CO)C(=O)N[C@@H](CO)C(=O)NCC(=O)N[C@@H](C)C(=O)N1CCC[C@H]1C(=O)N1CCC[C@H]1C(=O)N1CCC[C@H]1C(=O)N[C@@H](CO)C(N)=O)[C@@H](C)O)[C@@H](C)CC` [SEQ ID NO: 17, Y-Aib-E-G-T-F-T-S-D-L-S-I-Q-K(GABA-x70)-E-K-R-A-A-Aib-E-F-I-E-W-L-K-N-T-G-P-S-S-G-A-P-P-P-S-NH2] (H-Y[Aib]EGTFTSDLSIQK([GABA-Stearoyl])EKRAA[Aib]EFIEWLKNTGPSSGAPPPS-NH2), the solubility at 2 h was 970 µg/mL (≈ 213 µM) in data set [1] (buffer, pH 4.5) and > 1000 µg/mL in data set [1] (buffer, pH 7.4). Further, the pEC50 (usually −log10 of the EC50, conventionally taken in molar units) in data set [7] was 11.02; in data set [8], 11.06. Moreover, the “Stability (pH 4.5)” value in data set [3] was 100.0%. In addition, the “Stability (pH 7.4)” value in data set [3] worked out at 100.0%.

Values taken from US9670261B2 (Sanofi, priority 2012, dated 2017).
